In patent publication US9695155B2, “Herbicidal substituted pyrimidinyloxy benzene compounds” (E. I. DU PONT DE NEMOURS AND COMPANY, priority 2013, dated 2017):

What was measured:
barnyardgrass [1] = experiment: Test A preemergence; assay type: in vivo, Echinochloa crus-galli; conditions: for Barnyardgrass plant response rating (0 to 100 scale, 0 is no effect, 100 is complete control): 125 g ai/ha; for Barnyardgrass plant response rating: 500 g ai/ha, 0 to 100 scale where 0 is no effect and 100 is complete control
How it was run: (§1)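 Injury scores run from 0, no effect, to 100, complete control, judged by eye against untreated plants roughly 10 days after treatment. Chemicals carried a surfactant in a non-phytotoxic solvent and went onto loam–sand soil preemergence or onto one- to two-leaf seedlings postemergence.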

large (Lg) crabgrass [2] = experiment: Test A preemergence; assay type: in vivo, Digitaria sanguinalis; conditions: for Crabgrass, Large plant response rating (0 to 100 scale): 125 g ai/ha; for Crabgrass, Large plant response rating: 500 g ai/ha, 0 to 100 scale where 0 is no effect and 100 is complete control
How it was run: as §1

giant foxtail [3] = experiment: Test A preemergence; assay type: in vivo, Setaria faberii; conditions: for Foxtail, Giant plant response rating (0 to 100 scale): 125 g ai/ha; for Foxtail, Giant plant response rating: 500 g ai/ha, 0 to 100 scale where 0 is no effect and 100 is complete control
How it was run: as §1

morningglory [4] = experiment: Test A preemergence; assay type: in vivo, Ipomoea spp.; conditions: for Morningglory plant response rating (0 to 100 scale): 125 g ai/ha; for Morningglory plant response rating: 500 g ai/ha, 0 to 100 scale where 0 is no effect and 100 is complete control
How it was run: as §1

pigweed [5] = experiment: Test A preemergence; assay type: in vivo, Amaranthus retroflexus; conditions: for Pigweed plant response rating (0 to 100 scale): 125 g ai/ha; for Pigweed plant response rating: 500 g ai/ha, 0 to 100 scale where 0 is no effect and 100 is complete control
How it was run: as §1

velvetleaf [6] = experiment: Test A preemergence; assay type: in vivo, Abutilon theophrasti; conditions: for Velvetleaf plant response rating (0 to 100 scale): 125 g ai/ha; for Velvetleaf plant response rating: 500 g ai/ha, 0 to 100 scale where 0 is no effect and 100 is complete control
How it was run: as §1

wheat [7] = experiment: Test A preemergence; assay type: in vivo, Triticum aestivum; conditions: for Wheat plant response rating (0 to 100 scale): 125 g ai/ha; for Wheat plant response rating: 500 g ai/ha, 0 to 100 scale where 0 is no effect and 100 is complete control
How it was run: as §1

corn [8] = experiment: Test A preemergence; assay type: in vivo, Zea mays; conditions: for Corn plant response rating (0 to 100 scale): 125 g ai/ha; for Corn plant response rating: 500 g ai/ha, 0 to 100 scale where 0 is no effect and 100 is complete control
How it was run: as §1

barnyardgrass [9] = experiment: Test A postemergence; assay type: in vivo, Echinochloa crus-galli
How it was run: as §1

large (Lg) crabgrass [10] = experiment: Test A postemergence; assay type: in vivo, Digitaria sanguinalis
How it was run: as §1

giant foxtail [11] = experiment: Test A postemergence; assay type: in vivo, Setaria faberii
How it was run: as §1

morningglory [12] = experiment: Test A postemergence; assay type: in vivo, Ipomoea spp.
How it was run: as §1

pigweed [13] = experiment: Test A postemergence; assay type: in vivo, Amaranthus retroflexus
How it was run: as §1

velvetleaf [14] = experiment: Test A postemergence; assay type: in vivo, Abutilon theophrasti
How it was run: as §1

wheat [15] = experiment: Test A postemergence; assay type: in vivo, Triticum aestivum
How it was run: as §1

corn [16] = experiment: Test A postemergence; assay type: in vivo, Zea mays
How it was run: as §1

rice = experiment: Test B flooded paddy test; assay type: in vivo, Oryza sativa; conditions: Flood, 250 g ai/ha; 0 to 100 scale where 0 is no effect and 100 is complete control
How it was run: (§2)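 Evaluation is visual, against untreated controls, 13 to 15 days after treatment. Before treatment, plants reached the 2-leaf stage; pots were then flooded 3 cm deep, compound was added to the water, and that level was maintained. Ratings run 0 to 100, with 100 meaning complete control.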

sedge, umbrella = experiment: Test B flooded paddy test; assay type: in vivo, Cyperus difformis; conditions: Flood, 250 g ai/ha; 0 to 100 scale where 0 is no effect and 100 is complete control
How it was run: as §2

Heteranthera limosa = experiment: Test B flooded paddy test; assay type: in vivo; conditions: Flood, 250 g ai/ha; 0 to 100 scale where 0 is no effect and 100 is complete control
How it was run: as §2

barnyardgrass [17] = experiment: Test B flooded paddy test; assay type: in vivo, Echinochloa crus-galli; conditions: Flood, 250 g ai/ha; 0 to 100 scale where 0 is no effect and 100 is complete control
How it was run: as §2

[18] = 125 g ai/ha, 0 to 100 scale where 0 is no effect and 100 is complete control
[19] = 500 g ai/ha, 0 to 100 scale where 0 is no effect and 100 is complete control
[20] = 125 g ai/ha, 0 to 100 scale, 0 no effect, 100 complete control

SMILES	Barnyardgrass plant response rating (0 to 100 scale, 0 is no effect, 100 is complete control) (barnyardgrass [1])	Barnyardgrass plant response rating (barnyardgrass [1])	Crabgrass, Large plant response rating (0 to 100 scale) (large (Lg) crabgrass [2])	Crabgrass, Large plant response rating (large (Lg) crabgrass [2])	Foxtail, Giant plant response rating (0 to 100 scale) (giant foxtail [3])	Foxtail, Giant plant response rating (giant foxtail [3])	Morningglory plant response rating (0 to 100 scale) (morningglory [4])	Morningglory plant response rating (morningglory [4])	Pigweed plant response rating (0 to 100 scale) (pigweed [5])	Pigweed plant response rating (pigweed [5])	Velvetleaf plant response rating (0 to 100 scale) (velvetleaf [6])	Velvetleaf plant response rating (velvetleaf [6])	Wheat plant response rating (0 to 100 scale) (wheat [7])	Wheat plant response rating (wheat [7])	Corn plant response rating (0 to 100 scale) (corn [8])	Corn plant response rating (corn [8])	Plant response rating, Barnyardgrass (barnyardgrass [9]; [19])	Plant response rating, Crabgrass, Large (large (Lg) crabgrass [10]; [19])	Plant response rating, Foxtail, Giant (giant foxtail [11]; [19])	Plant response rating, Morningglory (morningglory [12]; [19])	further results
O=[N+]([O-])c1cnc(Oc2ccccc2-n2cc(Br)cn2)nc1 [Compound 225]	0	0	0	0	0	0	0	0	0	0	0	0	0	0	0	0	10	10	0	0	Barnyardgrass plant response rating (barnyardgrass [9]; [18]): 0; Crabgrass, Large plant response rating (large (Lg) crabgrass [10]; [18]): 0; Foxtail, Giant plant response rating (giant foxtail [11]; [18]): 0; Morningglory plant response rating (morningglory [12]; [18]): 0; Pigweed plant response rating (pigweed [13]; [18]): 0; Plant response rating, Pigweed (pigweed [13]; [19]): 0; Velvetleaf plant response rating (velvetleaf [14]; [18]): 0; Plant response rating, Velvetleaf (velvetleaf [14]; [19]): 0; Wheat plant response rating (wheat [15]; [18]): 0; Plant response rating, Wheat (wheat [15]; [19]): 0; Corn plant response rating (corn [16]; [18]): 0; Plant response rating, Corn (corn [16]; [19]): 0; Plant response rating, Rice (rice): 0; Plant response rating, Sedge, Umbrella (sedge, umbrella): 0; Plant response rating, Ducksalad (Heteranthera limosa): 0; Plant response rating, Barnyardgrass (barnyardgrass [17]): 0
COc1ccc(Br)c(-n2cc(Br)cn2)c1Oc1ncc(Cl)cn1 [Compound 201]	0	0	20	40	20	50	0	0	0	0	0	0	0	0	0	0	10	30	40	20	Barnyardgrass plant response rating (barnyardgrass [9]; [18]): 0; Crabgrass, Large plant response rating (large (Lg) crabgrass [10]; [18]): 0; Foxtail, Giant plant response rating (giant foxtail [11]; [18]): 0; Morningglory plant response rating (morningglory [12]; [18]): 20; Pigweed plant response rating (pigweed [13]; [18]): 20; Plant response rating, Pigweed (pigweed [13]; [19]): 40; Velvetleaf plant response rating (velvetleaf [14]; [18]): 30; Plant response rating, Velvetleaf (velvetleaf [14]; [19]): 70; Wheat plant response rating (wheat [15]; [18]): 0; Plant response rating, Wheat (wheat [15]; [19]): 0; Corn plant response rating (corn [16]; [18]): 0; Plant response rating, Corn (corn [16]; [19]): 0; Plant response rating, Rice (rice): 0; Plant response rating, Sedge, Umbrella (sedge, umbrella): 20; Plant response rating, Ducksalad (Heteranthera limosa): 40; Plant response rating, Barnyardgrass (barnyardgrass [17]): 0
Brc1cnn(-c2ccccc2Oc2ncccn2)c1 [Compound 275]	0	0	0	70	0	70	0	0	80	90	20	60	0	0	0	0	0	20	30	50	Plant response rating, Barnyardgrass (barnyardgrass [9]; [20]): 0; Plant response rating, Crabgrass, Large (large (Lg) crabgrass [10]; [20]): 0; Plant response rating, Foxtail, Giant (giant foxtail [11]; [20]): 0; Plant response rating, Morningglory (morningglory [12]; [20]): 10; Plant response rating, Pigweed (pigweed [13]; [20]): 80; Plant response rating, Pigweed (pigweed [13]; [19]): 90; Plant response rating, Velvetleaf (velvetleaf [14]; [20]): 60; Plant response rating, Velvetleaf (velvetleaf [14]; [19]): 90; Plant response rating, Wheat (wheat [15]; [20]): 0; Plant response rating, Wheat (wheat [15]; [19]): 0; Plant response rating, Corn (corn [16]; [20]): 0; Plant response rating, Corn (corn [16]; [19]): 0; Plant response rating, Rice (rice): 15; Plant response rating, Sedge, Umbrella (sedge, umbrella): 0; Plant response rating, Ducksalad (Heteranthera limosa): 30; Plant response rating, Barnyardgrass (barnyardgrass [17]): 15
O=Cc1cccc(Oc2ncc(Cl)cn2)c1-n1cc(Cl)cn1 [Compound 205]	0	0	0	0	0	0	0	0	0	10	0	10	0	0	0	0	0	0	0	0	Barnyardgrass plant response rating (barnyardgrass [9]; [18]): 0; Crabgrass, Large plant response rating (large (Lg) crabgrass [10]; [18]): 0; Foxtail, Giant plant response rating (giant foxtail [11]; [18]): 0; Morningglory plant response rating (morningglory [12]; [18]): 0; Pigweed plant response rating (pigweed [13]; [18]): 0; Plant response rating, Pigweed (pigweed [13]; [19]): 0; Velvetleaf plant response rating (velvetleaf [14]; [18]): 10; Plant response rating, Velvetleaf (velvetleaf [14]; [19]): 20; Wheat plant response rating (wheat [15]; [18]): 0; Plant response rating, Wheat (wheat [15]; [19]): 0; Corn plant response rating (corn [16]; [18]): 0; Plant response rating, Corn (corn [16]; [19]): 0; Plant response rating, Rice (rice): 0; Plant response rating, Sedge, Umbrella (sedge, umbrella): 0; Plant response rating, Ducksalad (Heteranthera limosa): 0; Plant response rating, Barnyardgrass (barnyardgrass [17]): 0
N#Cc1cnc(Oc2cccc(C#N)c2-n2cc(Br)cn2)nc1 [Compound 214]	0	0	0	0	0	0	0	0	0	0	0	0	0	0	0	0	0	0	0	0	Barnyardgrass plant response rating (barnyardgrass [9]; [18]): 0; Crabgrass, Large plant response rating (large (Lg) crabgrass [10]; [18]): 0; Foxtail, Giant plant response rating (giant foxtail [11]; [18]): 0; Morningglory plant response rating (morningglory [12]; [18]): 0; Pigweed plant response rating (pigweed [13]; [18]): 0; Plant response rating, Pigweed (pigweed [13]; [19]): 0; Velvetleaf plant response rating (velvetleaf [14]; [18]): 0; Plant response rating, Velvetleaf (velvetleaf [14]; [19]): 0; Wheat plant response rating (wheat [15]; [18]): 0; Plant response rating, Wheat (wheat [15]; [19]): 0; Corn plant response rating (corn [16]; [18]): 0; Plant response rating, Corn (corn [16]; [19]): 0; Plant response rating, Rice (rice): 0; Plant response rating, Sedge, Umbrella (sedge, umbrella): 0; Plant response rating, Ducksalad (Heteranthera limosa): 0; Plant response rating, Barnyardgrass (barnyardgrass [17]): 0
